# Assay results published in the supplement of paper PMC10307832.
# Tests used:
# Experiment in all cases: relative viability (nuclei count vs DMSO), 5 days (fraction); higher = more cells survive
# [1] = compound: OCc1c[nH]c2ccccc12 [Indole-3-carbinol] + CC(C)C[C@H](NC(=O)[C@H](Cc1ccccc1)NC(=O)c1cnccn1)B(O)O [Bortezomib] (partner 0.002 µM)
# In short: (§1)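 After 5 days of treatment, lung cancer cells in 1536-well plates were fixed and stained in a single step (final 0.05% Triton X-100, 1% formaldehyde, 1 ug/ml Hoechst) and their nuclei counted on 4× images. Treatment had been applied by pin tool the day after seeding as one drug alone or as a fixed anchor-drug dose with five library-drug doses (not always all listed) in √10 steps. Relative viability is the nuclei count of treated wells divided by that of vehicle wells, and values are medians of duplicate plates.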
# [2] = compound: OCc1c[nH]c2ccccc12 [Indole-3-carbinol] + CS(=O)(=O)N1CCN(Cc2cc3nc(-c4cccc5[nH]ncc45)nc(N4CCOCC4)c3s2)CC1 [Pictilisib] (partner 1 µM)
# In short: as §1
# [3] = compound: OCc1c[nH]c2ccccc12 [Indole-3-carbinol] + CC1(C)CCC(c2ccc(Cl)cc2)=C(CN2CCN(c3ccc(C(=O)NS(=O)(=O)c4ccc(N[C@H](CCN5CCOCC5)CSc5ccccc5)c(S(=O)(=O)C(F)(F)F)c4)cc3)CC2)C1 [Navitoclax] (partner 0.5 µM)
# In short: as §1
# [4] = compound: OCc1c[nH]c2ccccc12 [Indole-3-carbinol] + COc1cccc2cc(-c3nc([C@H]4CC[C@H](C(=O)O)CC4)n4ncnc(N)c34)[nH]c12 [OSI-027] (partner 0.5 µM)
# In short: as §1
# [5] = compound: OCc1c[nH]c2ccccc12 [Indole-3-carbinol] + CS(=O)(=O)CCNCc1ccc(-c2ccc3ncnc(Nc4ccc(OCc5cccc(F)c5)c(Cl)c4)c3c2)o1 [Lapatinib] (partner 2 µM)
# In short: as §1
Cell Line,relative viability ([1]; first compound 0.253 µM),relative viability ([1]; first compound 0.8 µM),relative viability ([1]; first compound 2.53 µM),relative viability ([1]; first compound 8 µM),relative viability ([2]; first compound 0.253 µM),relative viability ([2]; first compound 0.8 µM),relative viability ([2]; first compound 2.53 µM),relative viability ([2]; first compound 8 µM),relative viability ([3]; first compound 0.253 µM),relative viability ([3]; first compound 0.8 µM),relative viability ([3]; first compound 2.53 µM),relative viability ([3]; first compound 8 µM),relative viability ([4]; first compound 0.253 µM),relative viability ([4]; first compound 0.8 µM),relative viability ([4]; first compound 2.53 µM),relative viability ([4]; first compound 8 µM),relative viability ([5]; first compound 0.253 µM),relative viability ([5]; first compound 0.8 µM),relative viability ([5]; first compound 2.53 µM),relative viability ([5]; first compound 8 µM)
UMC-11,0.748,0.726,0.757,0.904,0.792,0.836,0.764,0.789,0.259,0.308,0.329,0.325,0.443,0.495,0.464,0.472,1.03,0.953,0.91,0.951
NCI-H1975,0.409,0.328,0.436,0.365,0.293,0.305,0.326,0.288,1.14,1.27,1.11,1.08,0.589,0.808,0.696,0.743,0.966,0.847,0.936,0.876
COR-L23,0.926,1.14,0.899,0.883,0.876,0.848,0.828,0.674,1.17,1.07,0.976,0.797,0.66,0.718,0.854,0.628,0.921,0.918,0.998,0.887
CAL-12T,0.983,1,0.842,0.819,0.338,0.616,0.398,0.377,1.21,1.48,1.16,0.993,0.709,0.775,0.62,0.623,0.728,0.592,0.665,0.527
SW 1573,1.15,1.18,1.12,0.997,0.361,0.577,0.544,0.425,1.1,1.13,1.03,0.901,0.639,0.593,0.804,0.521,1.2,1.05,1.16,1.08
NCI-H2126,1.11,1.11,1.1,1.1,0.469,0.483,0.518,0.498,0.824,0.872,0.865,0.83,0.706,0.745,0.65,0.791,0.761,0.741,0.78,0.748
